According to patent US20210206760A1, “PHENYL-SUBSTITUTED DIHYDRONAPHTHYRIDINE COMPOUND AND USE THEREOF” (SUNSHINE LAKE PHARMA CO., LTD., priority 2018, published 2021):

Each molecule was assayed against T1, mineralocorticoid receptor (MR) (Homo sapiens, UniProt P08235) (assay: Activity test in vitro: Gal4 DBD-MR LBD dual luciferase reporter assay in HEK293 cells). Details: HEK293 cells transfected with Gal4 DBD-MR LBD and firefly luciferase reporter; agonist aldosterone at EC80; 18 hours incubation; Renilla-corrected.
T1 construct: expressed in transfected cells; host or cells: HEK293 (human embryonic kidney cells)
T1 sequence (P08235 726-964 limits assumed): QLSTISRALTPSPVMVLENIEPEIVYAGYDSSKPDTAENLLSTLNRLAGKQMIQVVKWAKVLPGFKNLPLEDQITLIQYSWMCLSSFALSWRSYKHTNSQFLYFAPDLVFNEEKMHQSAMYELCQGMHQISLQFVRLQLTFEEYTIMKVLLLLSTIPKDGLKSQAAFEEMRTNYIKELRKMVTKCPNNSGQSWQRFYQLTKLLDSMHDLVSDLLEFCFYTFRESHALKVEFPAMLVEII
Assay type: cell-based
Text: Example a Activity Test In Vitro
Utilizing the characteristics of luciferase binding to the substrate to produce a chemiluminescence reaction, the fused plasmid of the Gal4 DNA binding domain (DBD) containing the ligand binding domain (LBD) of mineralocorticoid receptor (MR) and the firefly luciferase reporter gene plasmid controlled by Gal4 UAS (upstream activation sequences) were transfected into human embryonic kidney cells (HEK293). The changes in mineralocorticoid receptor activity between before and after stimulation or the influence of different stimuli on mineralocorticoid receptor activity was judged by the level of firefly luciferase activity. At the same time, in order to reduce the impact of internal change factors on the accuracy of the experiment, the plasmid with Renilla luciferase gene was used as a control plasmid to transfect cells to provide an internal control for transcription activity, so that the test results were not interfered by changes in experimental conditions.
1) HEK293 cells were collected after trypsinization and the cell density was adjusted to 500,000 cells/mL;
2) FuGENE HD transfection reagent was added into the cell suspension;
3) The above cell suspension was seeded into a 96-well cell culture plate at a density of 100 μL/well, and incubated for 24 hours at 37° C. in 5% CO2;
4) A series of concentrations of the test compound solution and the EC80 concentration of agonist aldosterone were added into each well and incubated for 18 hours;
5) Firefly and Renilla luciferase signals were detected through Promega dual luciferase reporter assay system.
1) After obtaining the firefly luciferase signal (F) and the Renilla luciferase signal (R), using the Renilla luciferase signal for correction, i.e., the F/R value was used to calculate the subsequent inhibition rate;
2)% inhibition rate=(Max−X)/(Max−Min)×100%, where Max is the F/R value of the positive control well, Min is the F/R value of the negative control well, and X is the F/R value of test compound well of different concentrations;
3) IC50 calculation was performed by GraphPrism 5.0 mapping software.

`COc1cc(C#N)ccc1C1C(C(N)=O)=C(C)Nc2c(C)cnc(OCC3CC3)c21` (centres unmarked) [Example 1, 4-(4-Cyano-2-methoxyphenyl)-5-(cyclopropylmethoxy)-2,8-dimethyl-1,4-dihydro-1,6-naphthyridine-3-carboxamide] and `COc1cc(C#N)ccc1C1C(C(N)=O)=C(C)Nc2c(C)cnc(OCC3CCC3)c21` (centres unmarked) [Example 5, 4-(4-cyano-2-methoxyphenyl)-5-(cyclobutylmethoxy)-2,8-dimethyl-1,4-dihydro-1,6-naphthyridine-3-carboxamide] are within 1.5-fold of each other in IC50: 19.4 nM for the first, 17.8 nM for the second.

First: COc1cc(C#N)ccc1C1C(C(N)=O)=C(C)Nc2c(C)cnc(OCC3CCCC3)c21 (centres unmarked) [Example 3, 4-(4-Cyano-2-methoxyphenyl)-5-(cyclopentylmethoxy)-2,8-dimethyl-1,4-dihydro-1,6-naphthyridine-3-carboxamide]
Second: COc1cc(C#N)ccc1C1C(C(N)=O)=C(C)Nc2c(C)cnc(OC3CCCC3)c21 (centres unmarked) [Example 8, 4-(4-Cyano-2-methoxyphenyl)-5-(cyclopentyloxy)-2,8-dimethyl-1,4-dihydro-1,6-naphthyridine-3-carboxamide]
The IC50 of the first is 3.7-fold higher: 28.7 nM for the first, 7.74 nM for the second. The second is the more potent here.

Molecule `COc1cc(C#N)ccc1C1C(C(N)=O)=C(C)Nc2c(C)cnc(OC3CCC3)c21` (centres unmarked) [Example 7, 4-(4-Cyano-2-methoxyphenyl)-5-(cyclobutyloxy)-2,8-dimethyl-1,4-dihydro-1,6-naphthyridine-3-carboxamide] has an IC50 of 3.44 nM.
